For test [1], the target named is T1, Octopine dehydrogenase (OcDH) (Pecten maximus, UniProt Q9BHM6).
T1 construct: gene odh1; OcDH-His5, U-[15N] labeled
Put plainly: 1H-15N TROSY-HSQC NMR titration of OcDH saturated with […] NADH. The test is classed as binding.

The target of test [2] is T1, Octopine dehydrogenase (OcDH). Put plainly: 1H-15N TROSY-HSQC NMR titration; also present in the OcDH/NADH/agmatine crystal structure. The class given is binding.
The target is the same in test [3]. Put plainly: 1H-15N TROSY-HSQC NMR titration. The class given is binding.
The target of test [4] is T2, Octopine dehydrogenase (OcDH) (Pecten maximus, UniProt Q9BHM6).
T2 construct: gene odh1; OcDH-His5, residues 2–404 in the model
T2 sequence (Q9BHM6 1-399): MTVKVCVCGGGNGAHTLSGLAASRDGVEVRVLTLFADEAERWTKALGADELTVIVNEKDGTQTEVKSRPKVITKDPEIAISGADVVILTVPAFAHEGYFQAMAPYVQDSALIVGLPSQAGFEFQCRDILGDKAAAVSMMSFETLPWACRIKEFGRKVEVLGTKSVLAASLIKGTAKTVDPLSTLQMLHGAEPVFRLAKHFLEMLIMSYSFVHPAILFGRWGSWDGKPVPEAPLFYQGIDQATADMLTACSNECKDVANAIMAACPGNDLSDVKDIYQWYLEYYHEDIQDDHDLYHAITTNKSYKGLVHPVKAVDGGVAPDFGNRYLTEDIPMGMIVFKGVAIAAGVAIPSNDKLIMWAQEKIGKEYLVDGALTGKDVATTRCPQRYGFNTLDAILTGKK
Put plainly: X-ray crystal structure ([…] Å, soak) of OcDH/NADH/agmatine; Ki from enzyme inhibition (Lineweaver-Burk). The class given is biochemical.

In general, Kd refers to the constant that tells how readily two partners part at equilibrium. As a reminder, the Ki is the dissociation constant of the complex between target and ligand, obtained from inhibition or displacement. A lower Ki goes with higher affinity.

Turning to `N=C(N)NCCC[C@H](N)C(=O)O` [L-arginine], binding in test [1] was put at a Kd of 4100 ± 310 µM.
As for `NC(=O)C1=CN([C@@H]2O[C@H](COP(=O)(O)OP(=O)(O)OC[C@H]3O[C@@H](n4cnc5c(N)ncnc54)[C@H](O)[C@@H]3O)[C@@H](O)[C@H]2O)C=CC1` [NADH], the dissociation constant (Kd) in test [2] is 62 ± 7 µM.
With `NC(=O)c1ccc[n+]([C@@H]2O[C@H](COP(=O)([O-])OP(=O)(O)OC[C@H]3O[C@@H](n4cnc5c(N)ncnc54)[C@H](O)[C@@H]3O)[C@@H](O)[C@H]2O)c1` [NAD^+], in test [3], the affinity, expressed as Kd, was 400 ± 50 µM.
Take `N=C(N)NCCCCN` [agmatine]: the Ki in test [4] worked out at 40000 ± 2000 µM.
